# Results reported in PubChem BioAssay AID1918958 (Molecular Pharmacology Branch, DTP, NCI, 2023).
# Where “and” joins values, the source holds several entries; their conditions need not be identical. Equal entries are not always repeated.
# Tested on: NCI-H196 complex spheroid viability
# Assay: Anticancer human tumor NCI-H196 cell line growth inhibition [LSD1];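 also: spheroids exposed to agents for 7 days before readout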;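 as to viability, T/C: 100% = DMSO vehicle control viability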
# Settings: for viability, T/C: stronger effect = lower value
# Source text: Multicellular complex tumor spheroid response to LSD1 Inhibitor Iadademstat in combination with a variety of drugs and investigational agents in selected tumor cell lines
# The current study was undertaken to assess response to LSD1 inhibitors in combination with standard-of-care drugs and investigational agents in solid tumor complex spheroid models as well as in the K-562 leukemia. Complex spheroids include a stromal component modeled by human endothelial cells (HUVEC) and fibroblasts modeled by human mesenchymal stem cells (MSCs). The concentration ranges selected for each drug and investigational agent were based upon clinically achievable concentrations if the clinical Cmax of the agent was known.
# Compounds. The drugs and investigational agents used in this study are listed on Table 1. All of the agents used, including staurosporine (NSC755774) and gemcitabine (NSC613327), were obtained from the Developmental Therapeutics Program, NCI. FDA-approved anticancer drugs are available from the NCI at http://dtp.nci.nih.gov/branches/dscb/oncology_drugset_explanation.html. Drugs and investigational agents were >95% pure by proton nuclear magnetic resonance (NMR) and liquid chromatography/mass spectrometry (LC/MS). Stock solutions were prepared at 400x in DMSO, stored at -70 degrees C, and diluted in fresh medium prior to their use. The final concentration of DMSO in cell culture wells never exceeded 0.25% (v/v). The FDA-approved anticancer drug set is available from the Developmental Therapeutics Program at https://dtp.cancer.gov/organization/dscb/obtaining/available_plates.htm. All drugs and investigational agents were tested over a range starting from a high concentration at or near the clinical Cmax and decreasing in half-log increments. If the clinical Cmax for an agent had not been determined, the highest concentration tested was 10 microM.
# Cell Lines. The patient-derived cancer cell (PDC) lines: 292921-168-R-J2-PDC, K24384-001-R-PDC, and 521955-158-R2-J5-PDC pancreatic carcinomas, 556581-035-R-J1 ovarian carcinoma, 324938-238-R-J1-PDC, 855422-203-R-J1-PDC and 883617-216-R-J1-PDC urothelial bladder carcinomas, 743489-274-T-PDC renal cell carcinoma, 138582-R-J1 Merkel cell tumor, K60290-347-R-J1 and K57222-313-R-J1-PDC glioblastomas, 653999-131-R-J2-PDC, LG0703-F948-PDC, and 349418-098-R-PDC non-small cell lung carcinomas, 885512-296-R-J2-PDC, 171881-019-R-J1-PDC breast carcinomas and 186277-243-T-J2-PDC and 233499-124-R-J2-PDC colon carcinomas were obtained from the NCI Patient-Derived Models Repository (PDMR, https://pdmr.cancer.gov). The established cell lines NCI/ADR-RES (RRID:CVCL_14520 and OVCAR-5 (RRID:CVCL_1628) ovarian carcinomas, 786-O (RRID:CVCL_1051) and A498 (RRID:CVCL_A498) renal cell carcinoma, NCI-H211 (ATCC, cat. CRL-5824; RRID:CVCL_1529), NCI-H196 (ATCC, cat. CRL-5823, RRID:CVCL_1509), SW 1271 (ATCC, cat. CRL-2177, RRID:CVCL_1716) and NCI-H1876 (ATCC, cat. CRL-5902, RRID:CVCL_1503) small cell lung carcinomas, MDA-MB-231 (RRID:CVCL_0062) and MDA-MB-468 (RRID:CVCL_0419)breast carcinomas (10-12). Pooled donor human umbilical vein endothelial cells (HUVEC, Lonza, cat. CC-2519) and human mesenchymal stem cells (hMSC, Lonza, cat. PT-2501) were purchased from Lonza (Walkersville, MD).
# Cell Culture. All cells were maintained in an incubator at 37 degrees C and 5% CO2 with 95% humidity. The PDC lines were cultured according to standard operating procedures established by the NCI PDMR (https://pdmr.cancer.gov). Briefly all PDCs were thawed and cultured in Matrigel-coated flasks prepared with a working solution of 1X Ham's F-12 nutrient mix, without supplementation (Invitrogen, Waltham, MA, cat. 11765054), 100 U/mL penicillin-streptomycin (Invitrogen, cat. 15140122), and 2.5% Matrigel (Corning Inc., Corning, NY, cat. 354248) for the first three passages. […]
smiles,measurement,setting,value
COc1ccc([C@@H](O)c2cc(-c3ncnc4cc(N5CCOCC5)ccc34)c(F)cc2Cl)nn1,"viability, T/C",compound 0.0316 µM,97.9% and 93.4%
same,"viability, T/C",compound 0.1 µM,100% and 90.9%
same,"viability, T/C",compound 0.316 µM,90.4% and 84.7%
same,"viability, T/C",compound 1 µM,86.4% and 85.7%
same,"viability, T/C",compound 3.16 µM,83.8% and 73.6%
same,"viability, T/C",compound 10 µM,57.7% and 53.2%
same,IC50,curve of compound,> 10000 nM
CCc1c2c(nc3ccc(O)cc13)-c1cc3c(c(=O)n1C2)COC(=O)[C@]3(O)CC + NC1CC1c1ccc(-c2cccc(O)c2)cc1,IC50,"curve of first compound, second compound 0.1 µM",8.32 nM
same,IC50,"curve of first compound, second compound 0.316 µM",9.63 nM
same,IC50,"curve of first compound, second compound 1 µM",9.19 nM
same,IC50,"curve of first compound, second compound 3.16 µM",6.69 nM
same,IC50,"curve of first compound, second compound 10 µM",5.92 nM
same,"viability, T/C","second compound 0.1 µM, first compound 0.000949 µM",119%
same,"viability, T/C","second compound 0.1 µM, first compound 0.003 µM",111%
same,"viability, T/C","second compound 0.1 µM, first compound 0.00949 µM",42%
same,"viability, T/C","second compound 0.1 µM, first compound 0.03 µM",4.2%
same,"viability, T/C","second compound 0.1 µM, first compound 0.0949 µM",1.09%
same,"viability, T/C","second compound 0.1 µM, first compound 0.3 µM",0.82%
same,"viability, T/C","second compound 0.316 µM, first compound 0.000949 µM",107%
same,"viability, T/C","second compound 0.316 µM, first compound 0.003 µM",93.1%
same,"viability, T/C","second compound 0.316 µM, first compound 0.00949 µM",52.4%
same,"viability, T/C","second compound 0.316 µM, first compound 0.03 µM",4.27%
same,"viability, T/C","second compound 0.316 µM, first compound 0.0949 µM",1.53%
same,"viability, T/C","second compound 0.316 µM, first compound 0.3 µM",1.11%
same,"viability, T/C","second compound 1 µM, first compound 0.000949 µM",112%
same,"viability, T/C","second compound 1 µM, first compound 0.003 µM",94.9%
same,"viability, T/C","second compound 1 µM, first compound 0.00949 µM",51.1%
same,"viability, T/C","second compound 1 µM, first compound 0.03 µM",3.65%
same,"viability, T/C","second compound 1 µM, first compound 0.0949 µM",1.2%
same,"viability, T/C","second compound 1 µM, first compound 0.3 µM",0.86%
same,"viability, T/C","second compound 3.16 µM, first compound 0.000949 µM",102%
same,"viability, T/C","second compound 3.16 µM, first compound 0.003 µM",81.2%
same,"viability, T/C","second compound 3.16 µM, first compound 0.00949 µM",37.8%
same,"viability, T/C","second compound 3.16 µM, first compound 0.03 µM",2.23%
same,"viability, T/C","second compound 3.16 µM, first compound 0.0949 µM",1.01%
same,"viability, T/C","second compound 3.16 µM, first compound 0.3 µM",0.7%
same,"viability, T/C","second compound 10 µM, first compound 0.000949 µM",90.9%
same,"viability, T/C","second compound 10 µM, first compound 0.003 µM",82.7%
same,"viability, T/C","second compound 10 µM, first compound 0.00949 µM",27.4%
same,"viability, T/C","second compound 10 µM, first compound 0.03 µM",1.9%
same,"viability, T/C","second compound 10 µM, first compound 0.0949 µM",0.86%
same,"viability, T/C","second compound 10 µM, first compound 0.3 µM",0.72%
